Results taken from patent publication US20180015455A1, “ADDITIVE CHANNELS” (Emulate Inc., priority 2016, published 2018).
Entries after “also recorded” stand apart in the source; their conditions may differ. Positions of bridges follow the written chain, without caps; N, C: chain ends. Non-standard residues stand in square brackets, D forms with d. Residues, ends and D or L forms follow the SMILES beside them. hArg = N=C(N)NCCCC[C@H](N)C(=O)O; Mpa = O=C(O)CCS

What was measured:
platelets [1] = experiment: Vessel-On-Chip blood perfusion: platelet coverage/aggregation by fluorescence imaging; format: cell-based, human
Description: (§1) Briefly, human blood was drawn in citrate buffer and used within 4 hours. Platelets were stained using fluorescently labeled non-blocking antibodies for the platelet surface marker CD41 and low dosages of fluorescent fibrinogen were added in order to visualize fibrin deposition. Blood was re-calcified in order to re-establish the full coagulation potential, then introduced in the biomimetic vessel-on-chip from the main inlet (embodiments of inlets shown in FIG. 18A-1, FIG. 18A-2 and FIG. 19C). The outlet of the chip was connected to a pulling syringe pump with a system of tubing and connectors made of medical grade silicon that excludes any metal components or potential causes of platelet activation (FIG. 5A).
Platelets were labeled with human CD41-PE antibody (10 μL/ml, Invitrogen) directly added to the blood and incubated at room temperature for 5 minutes.
A medical grade plastic reservoir was mounted on the chip, then 800 μl of the blood sample was pipetted into the reservoir. The chip was perfused with the blood by withdrawing it at a rate of 60 μl/minute using a syringe pump. The citrated blood was re-calcified 2 minutes after the beginning of each experiment by adding 100 μl/ml of a solution containing 100 mM calcium chloride and 75 mM magnesium chloride to the blood to permit calcium- and magnesium-dependent platelet function and coagulation.
(§2) Chips perfused with blood samples were immediately imaged via fluorescence microscopy (Olympus IX83, 10× objective UPLFLN10X2, Orca-Flash4.0 CMOS Camera). Each chamber was inspected along its entire length and 5 images (about 0.25 cm) were captured from the central area of the chamber. Image processing and quantification was performed with an automatic macro compiled in ImageJ and numerical values corresponding to platelet coverage or fibrin florescence were collected and statistically analyzed in Graphpad Prism V7.
(§3) A percentage of signal coverage (or Platelet coverage) was computed from the binary image as the ratio of bright pixels to the total number of pixels in the image. Image processing and quantification was performed with an automatic macro compiled in ImageJ in order to ensure unbiased signal measurements. Numerical values corresponding to platelet coverage or fibrin fluorescence (signal intensity) were collected and statistically analyzed in Graphpad Prism V7.

fibrin = experiment: Vessel-On-Chip blood perfusion: fibrin deposition (fluorescent fibrinogen); format: cell-based, human
Description: as §1
When analyzing the formation of fibrin, […] of fluorescently labeled fibrinogen (Alexa 488, Invitrogen) was also added to the blood. While fluorescent fibrinogen was barely detected as a diffused fluorescence, fibrin deposition on inflamed cells and sparse clots was easily distinguished since fibrin formed filamentous structures produce a signal intensity that is clearly observed above a background threshold.
as §2, with “Each chamber was inspected along its entire length and 5 images (about 0.25 cm) were captured from the central area of the chamber.” left out
as §3

[2] = test system: thrombin anti-thrombin complex (TAT); experiment: Thrombin anti-thrombin (TAT) ELISA in chip effluent plasma; format: cell-based, human
Description: Thrombin converts fibrinogen into fibrin during clot formation, and anti-thrombin plays a role in maintaining homeostasis by inhibiting the effect of thrombin. Formation of TAT in the microdevice confirms that local and intrinsic generation of thrombin, a potent platelet agonist, occurs in the model and that counter regulatory mechanisms for coagulation are retained. Thus, blood sampled from the Vessel-On-Chip was analyzed for thrombin anti-thrombin complex (TAT), an accepted clinical biomarker for procoagulation^48,49. TAT refers to a factor released upon activation of the coagulation cascade and one of the biomarkers associated with thrombotic events occurring in patients affected with deep vein thrombosis (DVT) or Systemic lupus erythematosus (SLE)^45,46. An enzyme-linked immunosorbent assay (ELISA) was used to quantify the thrombin anti-thrombin complex (TAT).
Thrombin Anti-Thrombin (TAT) levels were analyzed in plasma from blood flowing out of the chip device by removing a sample from the outflow port. Thus TAT levels were evaluated in sample effluents collected from the outflow port of the chip using the Human TAT ELISA Kit (Siemens Healthineers) according to the user manual.
Blood sampled from the Vessel-On-Chip outflow port was analyzed for thrombin anti-thrombin complex (TAT), a factor released upon activation of the coagulation cascade and one of the biomarkers associated with thrombotic events occurring in patients affected with deep vein thrombosis (DVT) or SLE^45,46. TAT is an accepted clinical biomarker for procoagulation^48,49. An enzyme-linked immunosorbent assay (ELISA) was used to quantify the thrombin anti-thrombin complex (TAT).

ICAM1 = ICAM1 immunostaining of endothelium; format: cell-based, human; conditions: TNF-α stimulated endothelium
platelets [3] = experiment: Platelet activation quality control by p-selectin expression; format: cell-based, human; conditions: control blood upon activation by ADP
Description: To test for a thrombic event, blood was collected from 4 donors, the as blood alone or blood treated with hu5C8 alone (240 μg/mL), sCD40L (10 ng/ml) alone or with combined hu5C8/sCD40L was incubated for 20 minutes at room temperature. Each sample was further incubated for 5 minutes with fluorescent labels for platelets and fibrinogen. As a standard quality control, the control blood was tested for platelet activation using p-selection expression. We confirmed that platelets in control blood were not activated but upon activation by ADP, over 90% of platelet was positive for p-selectin.

[4] = hu5C8: lupus nephritis clinical study; IDEC-131: Crohn's disease clinical trial; cited from earlier work
FcγRIIa = molecular target: T1, FcγRIIa (Homo sapiens, UniProt P12318); experiment: Vessel-On-Chip hu5C8-mediated thrombosis, FcγRIIa dependence (platelet coverage, fibrin deposition, TAT); format: cell-based; conditions: FcγRIIa blocked with IV.3 (1 μg/ml) or non-FcγRIIa binding IgG2σ variant, with sCD40L 10 ng/ml
T1 construct: Blood from several human donors were aliquoted into groups for the following treatments; host or cells: platelets in citrated human whole blood from donors, perfused over HUVEC-lined chips
T1 sequence (P12318 34-317): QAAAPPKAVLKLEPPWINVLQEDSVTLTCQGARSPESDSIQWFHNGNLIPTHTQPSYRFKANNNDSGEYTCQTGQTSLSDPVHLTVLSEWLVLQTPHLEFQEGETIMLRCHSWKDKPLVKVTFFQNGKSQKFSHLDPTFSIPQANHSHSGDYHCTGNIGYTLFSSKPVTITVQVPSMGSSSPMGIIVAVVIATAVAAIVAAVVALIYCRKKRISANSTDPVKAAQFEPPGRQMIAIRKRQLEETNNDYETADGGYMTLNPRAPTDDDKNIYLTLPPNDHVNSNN
Source text: Recent studies conducted on humanized mice expressing the human Fcγ receptors (FCGR2A) have shown that this receptor plays a role in thrombosis leading to the IC-mediated toxicity^12,16,21. […] In order to investigate if the ICs-induced thrombosis that we observed in our vessel-on-chip system also relies on an Fc-mediated mechanism, we used two different tool molecules: IgG2a and IV.3 (FIG. 25A). The IgG2σ variant of hu5C8 has an engineered Fc region^48 that eliminates affinity for the FcγRIIa, while the monoclonal antibody IV.3 is a blocking antibody binding to FcγRIIa. Briefly, equimolar concentrations of IgG2σ or hu5c8 were incubated with 10 ng/ml of sCD40L for 20 minutes to form ICIgG2σ or IC5c8, respectively.
Some of the blood samples were treated with IV.3 (1 μg/ml) for 10 minutes to block the FcγRIIa, and then incubated for 20 more minutes with ICs. Finally, blood alone (control) or blood incubated with IC5c8, ICIgG2σ or IV.3 was perfused through the biomimetic microfluidic-on-chip for about 10 minutes. We tested 15 donors and all the tested conditions described above were tested in duplicates and analyzed as percentage of platelet coverage based on fluorescence microscopic imaging (FIG. 25B). Five of the donors were also tested for fibrin deposition (FIG. 25C). Finally, effluents plasma obtained from a total of 7 of the donors (including the 5 mentioned before) were used to assess TAT via ELISA (FIG. 25D). […]
Blood from several human donors were aliquoted into groups for the following treatments: controls (PBS), sCD40L, combined hu5C8/sCD40L, combined hu5C8 (IgG2σ)/sCD40L combined, and combined hu5C8/sCD40L/IV.3. Each condition was tested with a minimum of 3 donors to a maximum of 15 donors, and all conditions were tested in duplicates and analyzed for platelet coverage (FIG. 25B), fibrin deposition (FIG. 25C), or increased formation of TAT measured in the eluates (FIG. 25D). […]

[5] = pro-thrombotic stimulus vs blood alone, TNF-α 50 ng/ml 6 hours on endothelium, sCollagen 10 μg/ml in blood
[6] = Eptifibatide 2 ug/ml, endothelium inflamed with TNF-α, n=4

With TNF-α the platelet coverage (platelets [1]; [5]) was “significantly increased”, the “fibrin deposition / fibrin signal intensity” value (fibrin; [5]) was “significantly increased” and the “levels of TAT in outflow samples” value ([2]; after treatment, FIG. 22B) was “significantly increased; also recorded: elevated levels”. For the same compound, the “ICAM1 expression in the endothelium compared to control” value (ICAM1) was “increased expression; also recorded: higher”.
For `Nc1ncnc2c1ncn2[C@@H]1O[C@H](COP(=O)(O)OP(=O)(O)O)[C@@H](O)[C@H]1O` [ADP], the “platelets positive for p-selectin” value (platelets [3]) was “over 90%”.
With `N=C(N)NCCCC[C@@H]1NC(=O)CCSSC[C@@H](C(N)=O)NC(=O)[C@@H]2CCCN2C(=O)[C@H](Cc2c[nH]c3ccccc23)NC(=O)[C@H](CC(=O)O)NC(=O)CNC1=O` [Eptifibatide] ([Mpa][hArg]GDWPC-NH2; disulfide 1-7) the “inhibition of platelet aggregation” value (platelets [1]; [6]) was “significantly inhibited”, the “inhibitory effect on platelet aggregation and fibrin clot formation” value (platelets [1]; Eptifibatide 2 ug/ml, following treatment with sCollagen, n=4) was “comparatively modest” and the “platelet adhesion (image analysis of multiple experiments)” value (platelets [1]; Eptifibatide 2 ug/ml, n=4) was “completely inhibited”. The “effect on platelet coverage and fibrin deposition in stimulated, pro-thrombotic conditions” value (platelets [1]; Eptifibatide added, TNF-α or sCollagen, n=4) was “suppressed; also recorded: inhibited”, the “inhibition of fibrin clot formation” value (fibrin; [6]) was “significantly inhibited” and the “fibrin signal remaining with Eptifibatide” value (fibrin; Eptifibatide 2 ug/ml, samples treated with TNF-α) was “still detectable”. The “effect on TAT increment associated with TNF-α-induced inflammation” value ([2]; Eptifibatide treatment) was “did not inhibit” and the “effect on TAT increment due to sCollagen treatment” value ([2]; Eptifibatide treatment) was “entirely suppressed”.
For “hu5C8: humanized monoclonal IgG1 antibody against CD40L (anti-CD154)”, the “treatment-related effects compared to untreated blood” value (platelets [1]; hu5C8 alone 240 μg/mL or sCD40L alone 10 ng/ml, 4 donors, 60 μl/minute) is given as “no significant treatment-related effects” and the “incidence of thromboembolic events” value [4] is given as 2/18.
With “hu5C8 (IgG2σ): IgG2σ variant of hu5C8 with an engineered Fc region that eliminates affinity for FcγRIIa” the “hu5C8-mediated thrombosis on-chip (all endpoints)” value (“hu5C8-mediated thrombosis on-chip” below) (FcγRIIa) was “did not show signs of thrombosis”, the “hu5C8-mediated thrombosis on-chip” value (FcγRIIa; listed as IgG2σ) was “suppressed” and the “hu5C8-mediated thrombosis on-chip” value (FcγRIIa; listed as hu5C8-IgG2σ) was “not detected”.
